ChEMBL document CHEMBL3885861, “Open TG-GATES”

Species: Rattus norvegicus
Assay: Open TG-GATES - Regimen: Single
Type: toxicity, organism-based, Sprague-Dawley
Set-up: regimen Single, gender Male, age 6 weeks
Conditions: in vivo, iv, 6 mg/kg, route intravenous injection, dose level Low; for APTT / Bas / Eos / Fbg / Hb / Ht / Lym / MCH / MCHC / MCV / Mono / Neu / PT / Plat / RBC / Ret / WBC: tissue Blood; for KIDNEY_L / KIDNEY_R / KIDNEY_TOTAL: tissue Kidney; for LIVER: tissue Liver; for A/G / ALP / ALT / AST / BUN / CRE / Ca / Cl / DBIL / GLC / IP / K / LDH / Na / PL / RALB / TBIL / TC / TG / TP / gamma-GTP: tissue Plasma

## NCCBr [BROMOETHANAMINE]
3 h
  TERMINAL_BW: 221.9 g
  APTT: 22.5 s
  Bas: 0%
  Eos: 0.4%
  Fbg: 300 mg/dL
  Hb: 13.3 g/dL
  Ht: 39.3%
  Lym: 77.8%
  MCH: 21.5 pg
  MCHC: 33.8%
  MCV: 63.5 fL
  Mono: 3%
  Neu: 18%
  PT: 16 s
  Plat: 125.4 x10_4/uL
  RBC: 618.4 x10_4/ul
  Ret: 6.4%
  WBC: 83.3 x10_2/uL
  KIDNEY_L: 1 g
  KIDNEY_R: 1 g
  KIDNEY_TOTAL: 2 g
  LIVER: 10.5 g
  A/G: 1.2
  ALP: 1604 IU/L
  ALT: 44.6 IU/L
  AST: 78 IU/L
  BUN: 14.4 mg/dL
  CRE: 0.2 mg/dL
  Ca: 10.8 mg/dL
  Cl: 106.2 meq/L
  DBIL: 0 mg/dL
  GLC: 167.8 mg/dL
  IP: 7.9 mg/dL
  K: 4.4 meq/L
  LDH: 187.8 IU/L
  Na: 142 meq/L
  PL: 140.8 mg/dL
  RALB: 3 g/dL
  TBIL: 0.02 mg/dL
  TC: 76.8 mg/dL
  TG: 101 mg/dL
  TP: 5.4 g/dL
  gamma-GTP: 2 IU/L
6 h
  TERMINAL_BW: 218.1 g
  APTT: 23.7 s
  Bas: 0%
  Eos: 0.6%
  Fbg: 311 mg/dL
  Hb: 13.3 g/dL
  Ht: 39.1%
  Lym: 83%
  MCH: 21.1 pg
  MCHC: 34.1%
  MCV: 61.9 fL
  Mono: 2.6%
  Neu: 12.6%
  PT: 16.2 s
  Plat: 118.5 x10_4/uL
  RBC: 632.6 x10_4/ul
  Ret: 6.5%
  WBC: 95.2 x10_2/uL
  KIDNEY_L: 1 g
  KIDNEY_R: 1 g
  KIDNEY_TOTAL: 2 g
  LIVER: 9.3 g
  A/G: 1.1
  ALP: 1385.2 IU/L
  ALT: 39 IU/L
  AST: 71.4 IU/L
  BUN: 10.6 mg/dL
  CRE: 0.1 mg/dL
  Ca: 10.5 mg/dL
  Cl: 105.8 meq/L
  DBIL: 0 mg/dL
  GLC: 178.8 mg/dL
  IP: 8.9 mg/dL
  K: 4.4 meq/L
  LDH: 147 IU/L
  Na: 140.8 meq/L
  PL: 128.8 mg/dL
  RALB: 2.8 g/dL
  TBIL: 0.02 mg/dL
  TC: 74.4 mg/dL
  TG: 49.2 mg/dL
  TP: 5.4 g/dL
  gamma-GTP: 2 IU/L
9 h
  TERMINAL_BW: 207.3 g
  APTT: 22.3 s
  Bas: 0%
  Eos: 0.6%
  Fbg: 297 mg/dL
  Hb: 13.4 g/dL
  Ht: 38.5%
  Lym: 80.4%
  MCH: 21.4 pg
  MCHC: 34.7%
  MCV: 61.8 fL
  Mono: 2.2%
  Neu: 16.2%
  PT: 16.3 s
  Plat: 110.5 x10_4/uL
  RBC: 623.6 x10_4/ul
  Ret: 5.4%
  WBC: 73.1 x10_2/uL
  KIDNEY_L: 0.9 g
  KIDNEY_R: 0.9 g
  KIDNEY_TOTAL: 1.8 g
  LIVER: 8 g
  A/G: 1.2
  ALP: 1508.8 IU/L
  ALT: 34 IU/L
  AST: 70 IU/L
  BUN: 12.8 mg/dL
  CRE: 0.2 mg/dL
  Ca: 10.5 mg/dL
  Cl: 106.2 meq/L
  DBIL: 0 mg/dL
  GLC: 174 mg/dL
  IP: 9.1 mg/dL
  K: 4.3 meq/L
  LDH: 129 IU/L
  Na: 141.2 meq/L
  PL: 121.8 mg/dL
  RALB: 2.9 g/dL
  TBIL: 0.018 mg/dL
  TC: 71.6 mg/dL
  TG: 48.4 mg/dL
  TP: 5.4 g/dL
  gamma-GTP: 1.4 IU/L
24 h
  TERMINAL_BW: 221.5 g
  APTT: 23.6 s
  Bas: 0%
  Eos: 0.8%
  Fbg: 322.8 mg/dL
  Hb: 14 g/dL
  Ht: 40.5%
  Lym: 79.8%
  MCH: 21 pg
  MCHC: 34.6%
  MCV: 60.7 fL
  Mono: 2.8%
  Neu: 15.6%
  PT: 16.4 s
  Plat: 121.7 x10_4/uL
  RBC: 666.6 x10_4/ul
  Ret: 5.5%
  WBC: 96.1 x10_2/uL
  KIDNEY_L: 1 g
  KIDNEY_R: 1.1 g
  KIDNEY_TOTAL: 2.1 g
  LIVER: 10.8 g
  A/G: 1.1
  ALP: 1490 IU/L
  ALT: 44.6 IU/L
  AST: 67.6 IU/L
  BUN: 18 mg/dL
  CRE: 0.2 mg/dL
  Ca: 10.7 mg/dL
  Cl: 105.8 meq/L
  DBIL: 0 mg/dL
  GLC: 183.6 mg/dL
  IP: 6.8 mg/dL
  K: 4.6 meq/L
  LDH: 187.8 IU/L
  Na: 141.6 meq/L
  PL: 162.8 mg/dL
  RALB: 2.9 g/dL
  TBIL: 0.01 mg/dL
  TC: 90.8 mg/dL
  TG: 99.4 mg/dL
  TP: 5.6 g/dL
  gamma-GTP: 1.8 IU/L
